Assay results: the NIST ThermoML archive (doi:10.1021/je2012555)

Key:
[1] = mn = molality of the nth substance listed, in mol/kg; conditions: 101 kPa, Liquid; for mass density: Vibrating tube method
[2] = cn = amount concentration of the nth substance listed, in mol/dm3; conditions: 298.15 K, 101 kPa, Liquid, Vibrating tube method

CNC(=O)CNC(C)=O [2-acetamido-N-methylacetamide] + O
[1]
Conditions | apparent molar heat capacity [J/K/mol] | mass density [kg/m3]
298.15 K, m1 = 0.04565 | – | 998.056
298.15 K, m1 = 0.0479 | 328.9 | –
298.15 K, m1 = 0.05924 | – | 998.352
298.15 K, m1 = 0.0715 | 328.6 | –
298.15 K, m1 = 0.07804 | – | 998.754
298.15 K, m1 = 0.09293 | – | 999.062
298.15 K, m1 = 0.0958 | 327.8 | –
298.15 K, m1 = 0.0987 | – | 999.177
298.15 K, m1 = 0.1439 | 326 | –
298.15 K, m1 = 0.153 | – | 1000.32
298.15 K, m1 = 0.1615 | – | 1000.5
298.15 K, m1 = 0.1766 | – | 1000.79
298.15 K, m1 = 0.1889 | – | 1001.04
298.15 K, m1 = 0.1912 | 324 | –
303.15 K, m1 = 0.0479 | 334.9 | –
303.15 K, m1 = 0.0715 | 336.1 | –
303.15 K, m1 = 0.0958 | 334.3 | –
303.15 K, m1 = 0.1439 | 333.6 | –
303.15 K, m1 = 0.1912 | 330.6 | –
308.15 K, m1 = 0.0479 | 343 | –
308.15 K, m1 = 0.0715 | 343.3 | –
308.15 K, m1 = 0.0958 | 342.7 | –
308.15 K, m1 = 0.1439 | 343.1 | –
308.15 K, m1 = 0.1912 | 342.7 | –
313.15 K, m1 = 0.0479 | 349.6 | –
313.15 K, m1 = 0.0715 | 350 | –
313.15 K, m1 = 0.0958 | 349.6 | –
313.15 K, m1 = 0.1439 | 350.6 | –
313.15 K, m1 = 0.1912 | 350.9 | –
318.15 K, m1 = 0.0479 | 357 | –
318.15 K, m1 = 0.0715 | 358.4 | –
318.15 K, m1 = 0.0958 | 359.1 | –
318.15 K, m1 = 0.1439 | 358.2 | –
318.15 K, m1 = 0.1912 | 360 | –
323.15 K, m1 = 0.0479 | 360.1 | –
323.15 K, m1 = 0.0715 | 361.7 | –
323.15 K, m1 = 0.0958 | 361.6 | –
323.15 K, m1 = 0.1439 | 361.4 | –
323.15 K, m1 = 0.1912 | 363 | –
328.15 K, m1 = 0.0479 | 365.8 | –
328.15 K, m1 = 0.0715 | 366.7 | –
328.15 K, m1 = 0.0958 | 367.2 | –
328.15 K, m1 = 0.1439 | 369.7 | –
328.15 K, m1 = 0.1912 | 369.1 | –

CNC(=O)[C@H](CC(C)C)NC(C)=O [(S)-2-acetamido-N,4-dimethylpentanamide] + O
[1]
Conditions | apparent molar heat capacity [J/K/mol] | mass density [kg/m3]
298.15 K, m1 = 0.0463 | 681 | –
298.15 K, m1 = 0.04684 | – | 997.65
298.15 K, m1 = 0.0559 | 682.8 | –
298.15 K, m1 = 0.07 | 682.5 | –
298.15 K, m1 = 0.08312 | – | 998.122
298.15 K, m1 = 0.0936 | 680.2 | –
298.15 K, m1 = 0.09402 | – | 998.23
298.15 K, m1 = 0.1007 | – | 998.343
298.15 K, m1 = 0.108 | – | 998.407
298.15 K, m1 = 0.1129 | 680 | –
298.15 K, m1 = 0.1157 | – | 998.565
298.15 K, m1 = 0.13 | – | 998.75
298.15 K, m1 = 0.1414 | – | 998.921
298.15 K, m1 = 0.1423 | 681.9 | –
298.15 K, m1 = 0.1613 | – | 999.112
303.15 K, m1 = 0.0463 | 683.5 | –
303.15 K, m1 = 0.0559 | 684.7 | –
303.15 K, m1 = 0.07 | 684.3 | –
303.15 K, m1 = 0.0936 | 682.6 | –
303.15 K, m1 = 0.1129 | 682.2 | –
303.15 K, m1 = 0.1423 | 684.4 | –
308.15 K, m1 = 0.0463 | 687.5 | –
308.15 K, m1 = 0.0559 | 688.6 | –
308.15 K, m1 = 0.07 | 687.3 | –
308.15 K, m1 = 0.0936 | 688.3 | –
308.15 K, m1 = 0.1129 | 686.7 | –
308.15 K, m1 = 0.1423 | 687.4 | –
313.15 K, m1 = 0.0463 | 690.1 | –
313.15 K, m1 = 0.0559 | 691.3 | –
313.15 K, m1 = 0.07 | 690.9 | –
313.15 K, m1 = 0.0936 | 690.3 | –
313.15 K, m1 = 0.1129 | 689.6 | –
313.15 K, m1 = 0.1423 | 691.1 | –
318.15 K, m1 = 0.0463 | 691.6 | –
318.15 K, m1 = 0.0559 | 692.3 | –
318.15 K, m1 = 0.07 | 692.3 | –
318.15 K, m1 = 0.0936 | 691.5 | –
318.15 K, m1 = 0.1129 | 691.7 | –
318.15 K, m1 = 0.1423 | 692.4 | –
323.15 K, m1 = 0.0463 | 693.1 | –
323.15 K, m1 = 0.0559 | 694.7 | –
323.15 K, m1 = 0.07 | 694.8 | –
323.15 K, m1 = 0.0936 | 693.4 | –
323.15 K, m1 = 0.1129 | 693.6 | –
323.15 K, m1 = 0.1423 | 694.8 | –
328.15 K, m1 = 0.0463 | 695.9 | –
328.15 K, m1 = 0.0559 | 696.8 | –
328.15 K, m1 = 0.07 | 696.9 | –
328.15 K, m1 = 0.0936 | 695.8 | –
328.15 K, m1 = 0.1129 | 697.5 | –
328.15 K, m1 = 0.1423 | 696.4 | –

CNC(=O)[C@H](C)NC(C)=O [(S)-2-acetamido-N-methylpropanamide] + O
[1]
Conditions | apparent molar heat capacity [J/K/mol] | mass density [kg/m3]
298.15 K, m1 = 0.02067 | – | 997.447
298.15 K, m1 = 0.04272 | – | 997.844
298.15 K, m1 = 0.0448 | 431 | –
298.15 K, m1 = 0.0545 | 429.7 | –
298.15 K, m1 = 0.0683 | 431.5 | –
298.15 K, m1 = 0.0751 | – | 998.437
298.15 K, m1 = 0.0909 | 429.6 | –
298.15 K, m1 = 0.1031 | – | 998.944
298.15 K, m1 = 0.1226 | – | 999.278
298.15 K, m1 = 0.1376 | 427.5 | –
298.15 K, m1 = 0.1431 | – | 999.644
298.15 K, m1 = 0.1816 | – | 1000.36
303.15 K, m1 = 0.0448 | 436.8 | –
303.15 K, m1 = 0.0545 | 437.5 | –
303.15 K, m1 = 0.0683 | 437.5 | –
303.15 K, m1 = 0.0909 | 437 | –
303.15 K, m1 = 0.1376 | 434.7 | –
308.15 K, m1 = 0.0448 | 444 | –
308.15 K, m1 = 0.0545 | 444.1 | –
308.15 K, m1 = 0.0683 | 442.3 | –
308.15 K, m1 = 0.0909 | 442.9 | –
308.15 K, m1 = 0.1376 | 442.4 | –
313.15 K, m1 = 0.0448 | 448 | –
313.15 K, m1 = 0.0545 | 447.7 | –
313.15 K, m1 = 0.0683 | 450.6 | –
313.15 K, m1 = 0.0909 | 450.6 | –
313.15 K, m1 = 0.1376 | 448.4 | –
318.15 K, m1 = 0.0448 | 453.6 | –
318.15 K, m1 = 0.0545 | 453.6 | –
318.15 K, m1 = 0.0683 | 453.3 | –
318.15 K, m1 = 0.0909 | 453.9 | –
318.15 K, m1 = 0.1376 | 453.5 | –
323.15 K, m1 = 0.0448 | 457.5 | –
323.15 K, m1 = 0.0545 | 458.3 | –
323.15 K, m1 = 0.0683 | 457.3 | –
323.15 K, m1 = 0.0909 | 458.2 | –
323.15 K, m1 = 0.1376 | 458 | –
328.15 K, m1 = 0.0448 | 459.8 | –
328.15 K, m1 = 0.0545 | 462.9 | –
328.15 K, m1 = 0.0683 | 462.4 | –
328.15 K, m1 = 0.0909 | 461.2 | –
328.15 K, m1 = 0.1376 | 461.5 | –

CNC(=O)[C@H](Cc1cnc[nH]1)NC(C)=O [N-acetyl-N'-methyl-L-alpha-histidinamide] + O
apparent molar heat capacity [J/K/mol], [1]
Conditions | m1 = 0.0546 | m1 = 0.0551 | m1 = 0.0616 | m1 = 0.0777 | m1 = 0.091 | m1 = 0.109 | m1 = 0.1358 | m1 = 0.137
298.15 K | 595.6 | 594.5 | 600.5 | 595.1 | 596.7 | 598.8 | 598.5 | 597.9
303.15 K | 606.8 | 610.2 | 612 | 609.8 | 608.7 | 610.9 | 612.6 | 608
308.15 K | 621.8 | 618.1 | 620.9 | 621.4 | 619.4 | 622.5 | 621 | 624.6
313.15 K | 634 | 628.9 | 631.6 | 629.5 | 635.5 | 630.5 | 637.1 | 631.6
318.15 K | 640.4 | 637 | 642.3 | 638 | 640.8 | 637.5 | 638.9 | 643.6
323.15 K | 648.2 | 652 | 651.7 | 648.2 | 646.7 | 654 | 650.6 | 650.9
328.15 K | 657.3 | 659.5 | 657 | 656.4 | 656.4 | 660.5 | 660 | 656

[2]
Conditions | mass density [kg/m3]
c1 = 0.03827 | 998.76
c1 = 0.04755 | 999.201
c1 = 0.04924 | 999.284
c1 = 0.05453 | 999.47
c1 = 0.05796 | 999.649
c1 = 0.06518 | 999.989
c1 = 0.0682 | 1000.14
c1 = 0.07517 | 1000.41
c1 = 0.07826 | 1000.59
c1 = 0.09152 | 1001.16
c1 = 0.0919 | 1001.16
c1 = 0.09948 | 1001.49
c1 = 0.1126 | 1002.02
c1 = 0.1188 | 1002.28
